Assay results from paper PMC12153776, “Synthesis and Preliminary Cytotoxicity Evaluation of 3-Lup-20(29)-Ene-3β,28-Diol Glycoconjugates Containing a Succinic Linker and a 1,2,3-Triazole Ring” (Cancers, 2025).

Columns and labels:
[1] = test system: Normal Human Dermal Fibroblast-Neonatal cells (NHDF-Neo); experiment: MTT cytotoxicity assay, healthy NHDF-Neo cells; assay type: cell-based; conditions: 24 h, incubation 24 h
Method: (§1) For biological studies three different cell lines were used: the NHDF-Neo cell line (Lonza, Poland), the HCT-116 cell line (American Type Culture Collection, ATCC, Manassas, VA, USA), and the MCF-7 cell line (purchased by the Maria Sklodowska-Curie Memorial Cancer Center and Institute of Oncology, Gliwice, Poland and gifted for our research). Cells were cultured in 96-well plates (Sarstedt, Nümbrecht, Germany) using RPMI 1640 or DMEM/F12 media (100 µL per well) supplemented with fetal bovine serum (FBS, EURx, Gdańsk, Poland), and with Antibiotic–Antimycotic Solution (Avantor, Gliwice, Poland). […] Stock solutions of the tested compounds were prepared in DMSO and stored under appropriate conditions. Immediately prior to the experiment, these solutions were diluted to the desired concentrations using a growth medium. In no dilution was the DMSO content higher than 1% v/v. The resulting solutions were then used to treat cells (100 µL per well). […] In parallel, the influence of copper ions on cellular proliferation was investigated. In this case, the procedure was analogous to the previously described one, with the difference that glycoconjugates were added in the culture medium with the addition of CuCl2. […] ACROS Organics) was applied following the manufacturer’s protocol. Absorbance of the formazan, formed during the test and dissolved in 100 µL of DMSO, was measured spectrophotometrically at 570 nm using a plate reader (Epoch, Bio-Tek, Winooski, VT, USA). The measured absorbance was analyzed to assess proliferation, where tested samples were compared with the untreated controls (100%). The results from MTT were presented as the mean of three experiments (biological replicates). For each experimental condition within a replicate, four technical repetitions were performed. Technical repetitions were averaged to obtain a single value per replicate. Statistical analyses were conducted using means of the biological replicates. The percentage of viable cells and the standard deviation (SD) were calculated in Excel (Microsoft Office 365, A3 for faculty), using the STDEV.S formula, which determines the standard deviation for a sample set. […] The results are expressed as the average value ± standard deviation (SD). To evaluate statistical significance, two-way analysis of variance (ANOVA) with replication was performed to assess the effects of compound type and concentration on cell proliferation. […] All statistical tests were performed in Excel. […] Two cancer cell lines were chosen for the study: HCT 116 (colorectal carcinoma cell line) and MCF-7 (human breast adenocarcinoma cell line). This selection was not random, as in both types of cancer cell lines overexpression of glucose and galactose transporters is observed. To determine if glycoconjugation enhanced the selectivity of the betulin derivatives, cytotoxicity tests on Normal Human Dermal Fibroblast-Neonatal cells (NHDF-Neo) were also conducted. […] The incubation time for individual cell lines varied from 24 to 72 h, due to differences in the doubling time of these cell lines.

[2] = test system: MCF-7 (human breast adenocarcinoma cell line); experiment: MTT cytotoxicity assay, MCF-7 cells; assay type: cell-based; conditions: for IC50: Homo sapiens, MCF7, 72 h, MTT, incubation 72 h
Method: as §1, with “Poland). Cells were seeded and incubated for 24 h prior to treatment:” for “Poland).”, “proliferation. When significant main effects were observed (p < 0.05), pairwise comparisons between betulin (BN) and each analogue at corresponding concentrations were conducted using two-tailed unpaired t-tests.” for “proliferation.”, “conducted. The selection of this healthy cell line, so atypical in relation to the cancer cells tested, was based on the desire to compare the selectivity index determined for the currently obtained glycoconjugates with the results obtained for the betulin derivatives we described earlier and draw preliminary conclusions on structure-selectivity relationships.” for “conducted.”

[3] = test system: HCT 116 (colorectal carcinoma cell line); experiment: cells; assay type: cell-based, human; conditions: for IC50: Homo sapiens, MTT
Method: as §1

[4] = HCT-116, 24 h, incubation 24 h, no copper added
[5] = HCT-116, 48 h, incubation 48 h, no copper added
[6] = HCT-116, 48 h, incubation 48 h, addition of CuCl2 at 20 µM

| Compound | IC50 ([1]; no copper added) | IC50 ([2]; no copper added) | SI MCF-7 (ratio of IC50 of NHDF-Neo to IC50 of cancer cells) ([2]; no copper added) | IC50 [3, 4] | IC50 [3, 5] | IC50 ([1]; addition of CuCl2 at 20 µM) | IC50 ([2]; addition of CuCl2 at 20 µM) | SI MCF-7 (ratio of IC50 of NHDF-Neo to IC50 of cancer cells) ([2]; addition of CuCl2 at 20 µM) | IC50 [3, 6] | IC50 ([3]; HCT-116, 24 h, incubation 24 h, addition of CuCl2 at 20 µM) | SI HCT 116 (ratio of IC50 of NHDF-Neo to IC50 of cancer cells) ([3]; addition of CuCl2 at 20 µM) | SI HCT 116 (ratio of IC50 of NHDF-Neo to IC50 of cancer cells) ([3]; no copper added) |
| --- | --- | --- | --- | --- | --- | --- | --- | --- | --- | --- | --- | --- |
| C=C(C)[C@@H]1CC[C@]2(COC(=O)CCC(=O)OCc3cn([C@@H]4O[C@H](COCc5ccccc5)[C@H](OCc5ccccc5)[C@H](OCc5ccccc5)[C@H]4OCc4ccccc4)nn3)CC[C@]3(C)C(CCC4[C@@]5(C)CC[C@H](OC(C)=O)C(C)(C)C5CC[C@]43C)C12 (stereo partly shown) [6b] | > 200 µM | 184 ± 7.59 µM | >1.1 | > 200 µM | > 200 µM |  |  |  |  |  |  |  |
| C=C(C)[C@@H]1CC[C@]2(COC(=O)CCC(=O)OCc3cn([C@@H]4O[C@H](COC(C)=O)[C@@H](OC(C)=O)[C@H](OC(C)=O)[C@H]4OC(C)=O)nn3)CC[C@]3(C)C(CCC4[C@@]5(C)CC[C@H](OC(C)=O)C(C)(C)C5CC[C@]43C)C12 (stereo partly shown) [5a] | > 200 µM | 163 ± 7.65 µM | >1.2 | > 200 µM | > 200 µM | > 200 µM | 109 ± 5.85 µM | >1.8 | > 200 µM |  |  |  |
| COc1cccc2c1C(=O)c1c(O)c3c(c(O)c1C2=O)C[C@@](O)(C(=O)CO)C[C@@H]3O[C@H]1C[C@H](N)[C@H](O)[C@H](C)O1 [Doxorubicin, doxorubicin, reference compound] |  | 0.29 ± 0.04 µM |  | 13.2 ± 0.58 µM | 1.89 ± 0.19 µM |  |  |  |  |  |  |  |
| C=C(C)[C@@H]1CC[C@]2(COC(=O)CCC(=O)OCc3cn(CCO)nn3)CC[C@]3(C)C(CCC4[C@@]5(C)CC[C@H](OC(C)=O)C(C)(C)C5CC[C@]43C)C12 (stereo partly shown) [9a] | > 200 µM | 148 ± 8.71 µM | >1.4 | > 200 µM | > 200 µM | > 200 µM | 139 ± 6.21 µM |  | > 200 µM | > 200 µM |  |  |
| C=C(C)[C@@H]1CC[C@]2(CO)CC[C@]3(C)[C@H](CC[C@@H]4[C@@]5(C)CC[C@H](O)C(C)(C)[C@@H]5CC[C@]43C)[C@@H]12 [BN, 3-Lup-20(29)-ene-3β,28-diol] | 34.9 ± 8.36 µM | 17.9 ± 1.06 µM | 1.9 | 34.9 ± 4.26 µM | 26 ± 5.4 µM | 33.3 ± 5.97 µM | 13.9 ± 2.35 µM | 2.4 | 20.8 ± 2.71 µM |  | 1.6 | 1.3 |
| C=C(C)[C@@H]1CC[C@]2(COC(=O)CCC(=O)OCc3cn([C@@H]4O[C@H](COCc5ccccc5)[C@@H](OCc5ccccc5)[C@H](OCc5ccccc5)[C@H]4OCc4ccccc4)nn3)CC[C@]3(C)C(CCC4[C@@]5(C)CC[C@H](OC(C)=O)C(C)(C)C5CC[C@]43C)C12 (stereo partly shown) [5b] | > 200 µM | 168 ± 11.7 µM | >1.2 | > 200 µM | > 200 µM |  |  |  |  |  |  |  |
| C=C(C)[C@@H]1CC[C@]2(COC(=O)CCC(=O)OCc3cn(C[C@H]4O[C@@H](OC(C)=O)[C@H](OC(C)=O)[C@@H](OC(C)=O)[C@H]4OC(C)=O)nn3)CC[C@]3(C)C(CCC4[C@@]5(C)CC[C@H](OC(C)=O)C(C)(C)C5CC[C@]43C)C12 (stereo partly shown) [8a] | > 200 µM | 153 ± 1.98 µM | >1.3 | > 200 µM | > 200 µM | > 200 µM | 88.3 ± 3.31 µM | >2.3 | > 200 µM |  |  |  |
| C=C(C)[C@@H]1CC[C@]2(COC(=O)CCC(=O)OCc3cn(CCO[C@@H]4O[C@H](COC(C)=O)[C@@H](OC(C)=O)[C@H](OC(C)=O)[C@H]4OC(C)=O)nn3)CC[C@]3(C)C(CCC4[C@@]5(C)CC[C@H](OC(C)=O)C(C)(C)C5CC[C@]43C)C12 (stereo partly shown) [7a] | > 200 µM | 144 ± 4.7 µM | >1.4 | > 200 µM | > 200 µM | > 200 µM | 135 ± 10.2 µM | >1.5 | 150 ± 8.01 µM |  | >1.3 |  |
| C=C(C)[C@@H]1CC[C@]2(COC(=O)CCC(=O)OCc3cn(CCCO[C@@H]4O[C@H](COC(C)=O)[C@@H](OC(C)=O)[C@H](OC(C)=O)[C@H]4OC(C)=O)nn3)CC[C@]3(C)C(CCC4[C@@]5(C)CC[C@H](O)C(C)(C)C5CC[C@]43C)C12 (stereo partly shown) [7d] | > 200 µM | 165 ± 8.32 µM | >1.2 | > 200 µM | 131 ± 8.76 µM | > 200 µM | 147 ± 2.32 µM | >1.4 | 60.4 ± 6.95 µM |  |  | >1.5 |
| C=C(C)[C@@H]1CC[C@]2(COC(=O)CCC(=O)OCc3cn([C@@H]4O[C@H](COC(C)=O)[C@H](OC(C)=O)[C@H](OC(C)=O)[C@H]4OC(C)=O)nn3)CC[C@]3(C)C(CCC4[C@@]5(C)CC[C@H](OC(C)=O)C(C)(C)C5CC[C@]43C)C12 (stereo partly shown) [6a] | > 200 µM | 123 ± 6.84 µM | >1.6 | > 200 µM | > 200 µM | > 200 µM | 59.8 ± 1.85 µM |  | > 200 µM |  |  |  |
| C=C(C)[C@@H]1CC[C@]2(COC(=O)CCC(=O)OCc3cn([C@@H]4O[C@H](COC(C)=O)[C@@H](OC(C)=O)[C@H](OC(C)=O)[C@H]4OC(C)=O)nn3)CC[C@]3(C)C(CCC4[C@@]5(C)CC[C@H](O)C(C)(C)C5CC[C@]43C)C12 (stereo partly shown) [5c] | > 200 µM | 128 ± 1.35 µM | >1.6 | > 200 µM | > 200 µM | > 200 µM | 70.7 ± 5.44 µM | >2.8 | > 200 µM |  |  |  |
